Several values for one entry are separate records, joined by “and”; a condition that tells them apart may be missing. Identical values can stand only once.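 Interpolation was linear, between the two tested concentrations surrounding the appropriate level; five concentrations were tested over 48 hours in 96-well plates. At the GI50, growth is halved. TGI: concentration producing complete growth inhibition.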 Activity calls are given as the source filed them. No stated cut-off is given here; in the data, active means GI50 below about 0.43 µM; inactive means the rest.
Columns and labels:
Experiment in all cases: DTP human tumour cell line panel, 48 h
DLD-1 colon = tested on: DLD-1 colon
HOP-92 NSCLC = tested on: HOP-92 NSCLC
KM20L2 colon = tested on: KM20L2 colon
LOX IMVI melanoma = tested on: LOX IMVI melanoma
MOLT-4 leukemia = tested on: MOLT-4 leukemia
SK-MEL-5 melanoma = tested on: SK-MEL-5 melanoma
TK-10 renal = tested on: TK-10 renal
A498 renal = tested on: A498 renal
T-47D breast = tested on: T-47D breast

| Structure (SMILES) | TGI (DLD-1 colon) [µM] | TGI (HOP-92 NSCLC) | TGI (KM20L2 colon) [µM] | TGI (LOX IMVI melanoma) | TGI (MOLT-4 leukemia) | TGI (SK-MEL-5 melanoma) | TGI (TK-10 renal) | TGI (A498 renal) | GI50 (DLD-1 colon) | outcome (KM20L2 colon) | GI50 (LOX IMVI melanoma) [µM] | GI50 (T-47D breast) [µM] | TGI (T-47D breast) | GI50 (A498 renal) [µM] | GI50 (HOP-92 NSCLC) [µM] | GI50 (MOLT-4 leukemia) [µM] | GI50 (KM20L2 colon) [µM] | GI50 (SK-MEL-5 melanoma) [µM] | GI50 (TK-10 renal) [µM] |
| --- | --- | --- | --- | --- | --- | --- | --- | --- | --- | --- | --- | --- | --- | --- | --- | --- | --- | --- | --- |
| COc1c2nc(CCl)[nH]c(=O)c2c(OC)c2nc(CCl)[nH]c(=O)c12 | > 100 | > 100 µM | > 100 | > 100 µM | > 100 µM | > 100 µM | > 100 µM | – | – | – | – | – | – | – | – | – | – | – | – |
| COc1ccc([N+]2=NC(c3ccc([N+](=O)[O-])cc3)=NN(c3ccccc3)C2)cc1 | > 100 | – | > 100 | > 100 µM | 74.4 µM and > 100 µM | 61.5 µM and 83.9 µM | > 100 µM | > 100 µM | – | – | – | – | – | – | – | – | – | – | – |
| COc1ccc(NC(=O)C(=O)C(C(=O)c2ccccc2)C2OC(=O)c3ccccc32)c([N+](=O)[O-])c1 (configuration not stated) | > 100 | > 100 µM | > 100 | > 100 µM | > 100 µM | > 100 µM | > 100 µM | > 100 µM | – | – | – | – | – | – | – | – | – | – | – |
| O=C(Nc1cc(Cl)c(Cl)cc1Cl)C(=O)C1C=CCS1(=O)=O (configuration not stated) | > 100 | > 100 µM | > 100 | > 100 µM | > 100 µM | > 100 µM | > 100 µM | > 100 µM | – | – | – | – | – | – | – | – | – | – | – |
| COC(=O)c1s/c(=N\C(=S)N(C)C)n(-c2ccccc2)c1C(=O)OC | – | > 100 µM | > 100 | > 100 µM | > 100 µM | > 100 µM | > 100 µM | > 100 µM | – | – | – | – | – | – | – | – | – | – | – |
| O=C1OC(CC(=O)c2ccc(Cl)c(Cl)c2)C(Cl)=C1Cl (configuration not stated) | > 100 | – | > 100 | > 100 µM | > 100 µM | > 100 µM | > 100 µM | > 100 µM | – | – | – | – | – | – | – | – | – | – | – |
| CCCCc1c2c(nc3c1CCC/C3=C\c1ccccc1)C(=O)CCC2 | – | 58.7 µM | 41.7 | 34.1 µM | 43.4 µM | 30.4 µM | 72.4 µM | 61.4 µM | – | – | – | – | – | – | – | – | – | – | – |
| CC(C)CS(=O)(=O)/C(=C(\c1ccc(Br)cc1)S(=O)(=O)CC(C)C)c1ccc(Br)cc1 | > 100 | > 100 µM | > 100 | > 100 µM | > 100 µM | 2.8 µM | > 100 µM | 31.6 µM | – | – | – | – | – | – | – | – | – | – | – |
| O=[N+]([O-])c1cccc(C2N3CCCCC3[C@@H]3c4[nH]c5ccccc5c4CCN23)c1 (some centres not stated) | 29.2 | 36.2 µM | 22.9 | – | > 100 µM | 27.2 µM | 35.4 µM | 29.5 µM | – | – | – | – | – | – | – | – | – | – | – |
| CC(=O)OCC1OC(N2C(=O)C(=O)c3cc(C)ccc32)C(OC(C)=O)C(OC(C)=O)C1OC(C)=O (configuration not stated) | > 100 | > 100 µM | > 100 | 34.3 µM | > 100 µM | > 100 µM | > 100 µM | > 100 µM | – | – | – | – | – | – | – | – | – | – | – |
| Cc1c[nH]c2c(O)cc3c(c12)[C@H](CCl)CN3C(=O)c1cc2cc(NC(=O)Nc3ccc4[nH]c(C(=O)N5C[C@@H](CCl)c6c5cc(O)c5[nH]cc(C)c65)cc4c3)ccc2[nH]1 | – | > 100 µM and 0.00813 µg/mL | – | – | – | 26.6 nM and 25.5 µM and 0.00138 µg/mL | – | 75.7 nM and 15 µM and 0.00215 µg/mL | 0.000887 ng/mL and 1.4 ng/mL | inactive | 0.00117 | 0.00671 | 0.0911 µM and 0.0461 µM | – | – | – | – | – | – |
| Cc1cc(Cl)ccc1NC(=O)CCCC(=O)C1CCCC1=O (configuration not stated) | > 100 | – | > 100 | > 100 µM | > 100 µM | > 100 µM | > 100 µM | > 100 µM | – | – | – | – | – | – | – | – | – | – | – |
| Cc1[nH]c2ccccc2c1C1Cc2ccccc2N1C(=O)/C=C\C(=O)O (configuration not stated) | > 100 | 76.6 µM | > 100 | 37.6 µM | > 100 µM | 88.3 µM | > 100 µM | > 100 µM | – | – | – | – | – | – | – | – | – | – | – |
| CCN(CC)CCCC(C)Nc1c2ccc(Cl)cc2nc2ccc(OC)cc12 (configuration not stated) | 4.39 | 3.17 µM and 2.53 µM | 3 | 3.56 µM and 2.57 µM | 4.34 µM and 2.52 µM | 3.1 µM | 11.8 µM and 13 µM | 6.93 µM and 5.11 µM | – | – | 1.52 | 2.59 | 7.01 µM and 5.68 µM | 1.64 | 0.811 | 0.863 | – | – | – |
| CCOC(=O)C(N)C[S][Sn]([CH3])([CH3])[Cl] (configuration not stated) | > 100 | > 100 µM | > 100 | > 100 µM | > 100 µM | > 100 µM | > 100 µM | – | > 100 µM | – | 37 | – | – | – | > 100 | > 65.2 | > 100 | > 100 | > 100 |
| CCN(CC)CC(O)CNc1ccc(NCC2CO2)c2c1C(=O)c1ccccc1C2=O (configuration not stated) | 10.7 | 6.39 µM | 8.63 | 0.0392 µM and 0.0576 µM | 0.0582 µM and 0.0292 µM | 1.8 µM | 7.15 µM | 11.6 µM | – | – | 0.00454 | – | – | – | – | 0.00515 | – | 0.398 | – |
| CC(=O)Nc1ccc(C(=O)NN2C(=O)C(Cl)C2c2ccc(Cl)cc2)cc1 (configuration not stated) | > 100 | 82.1 µM | – | – | > 100 µM | > 100 µM | > 100 µM | – | – | – | – | – | > 100 µM | – | – | – | – | – | – |
| CC[C@@H]1OC2(C)CC(S(=O)(=O)c3ccccc3O)CC1O2 (some centres not stated) | > 100 | > 100 µM | > 100 | – | > 100 µM | > 100 µM | – | – | – | – | – | – | – | – | – | – | – | – | – |
| COc1ccc(-c2onc(-c3ccc([N+](=O)[O-])cc3)c2C2=NCCN2)cc1 | > 100 | – | > 100 | > 100 µM | > 100 µM | > 100 µM | – | – | – | – | – | – | – | – | – | – | – | – | – |
| C=CC1(C(=O)O)CCC(C(C)(C)C)CC1 (configuration not stated) | > 100 | > 100 µM | > 100 | – | > 100 µM | > 100 µM | > 100 µM | > 100 µM | – | – | – | – | – | – | – | – | – | – | – |
| O=C(/C=C/c1ccc([N+](=O)[O-])o1)N1CCN(Cc2ccccc2)CC1 | 19.7 | 27.8 µM | 24.3 | 26.6 µM | 38.7 µM | 22.4 µM | 37.9 µM | 29.2 µM | – | – | – | – | – | – | – | – | – | – | – |
| NC(=O)C(=Cc1ccc(C(O)P(=O)(O)O)cc1)C(N)=O (configuration not stated) | > 100 | > 100 µM | > 100 | > 100 µM | > 100 µM | > 100 µM | > 100 µM | > 100 µM | – | – | – | – | – | – | – | – | – | – | – |
| C=C1C(=O)O[C@H]2[C@H]1CC/C(CNC(=O)c1cc3cc(OC)ccc3[nH]1)=C\CC[C@@]1(C)O[C@@H]21 | – | 3.35 µM | – | 2.67 µM | 6.85 µM | 4.85 µM | 4.61 µM | 8.64 µM | – | – | 1.36 | 1.47 | 4.35 µM | 1.93 | 1.56 | 2.08 | – | 2.01 | 1.88 |
| CC/C(C)=C1\CCC(CN2CCOCC2)C1=O (configuration not stated) | 27 | 32.4 µM | 36.7 | 30.5 µM | > 100 µM | 78.4 µM | 28 µM | 39.1 µM | – | – | – | – | – | – | – | – | – | – | – |
